According to US7432397B2, “Imaging compounds” (Hammersmith Imanet Ltd., priority 2002, dated 2008):
Marks after values point to notes of the source that are not given here.

Test: Biodistribution of radioactivity in rat tissues after intravenous injection
Assay type: in vivo
Conditions: for Radioactivity in Cerebellum / Radioactivity in Entorhinal cortex / Radioactivity in Fat / Radioactivity in Heart (ventricle) / Radioactivity in Hippocampus / Radioactivity in Hypothalamus / Radioactivity in Inferior collicull / Radioactivity in Kidney / Radioactivity in Large intestine / Radioactivity in Lge. intestine content / Radioactivity in Liver / Radioactivity in Lung / Radioactivity in Medulla with Pons / Radioactivity in Olfactory bulbs / Radioactivity in Olfactory tubercles / Radioactivity in Prefrontal cortex / Radioactivity in Skeletal muscle / Radioactivity in Skin / Radioactivity in Sm. intestine content / Radioactivity in Small intestine / Radioactivity in Somatosensory cortex / Radioactivity in Spleen / Radioactivity in Stomach / Radioactivity in Striata / Radioactivity in Superior collicull / Radioactivity in Testis / Radioactivity in Thalamus / Radioactivity in Visual cortex / Radioactivity in Plasma / Radioactivity in Whole blood / Radioactivity in Urine: i.v.; for Radioactivity in Plasma / Radioactivity in Whole blood: composite curve of 9 rats
Method: Sixteen adult male Sprague-Dawley rats (body weight 250-320 g: mean±SD=288±25 g) were used in 5 separate experiments. Each rat was injected with ˜13 MBq Compound 1, at a specific activity of […], via a previously catheterised tail vein. The associated stable compound was 0.5±0.2 nmol/kg. Discrete samples of arterial blood were collected from 9 of the rats via a previously catheterised tail artery.
Tissues were sampled post-mortem using an established protocol, as described in Hirani et al, Synapse 42:164-176 (2001). The radioactivity concentration data obtained at 12 times up to 90 min after radioligand injection were normalised for both amount injected and body weight, giving:—‘uptake units’=(cpm/g tissue)/(injected cpm/g body weight).

CSc1cccc(N([11CH3])C(=N)Nc2cc(SC)ccc2Cl)c1 [Compound 1, (N-(2-chloro-5-(methylthio)phenyl)-N′-(3-methylthio)phenyl)-N′-[N-methyl-^11C]-methylguanidine]
extraction of radioactivity into the brain (following intravenous injection): high extraction | Radioactivity in Cerebellum (1 min): 2.21 Uptake Units | Radioactivity in Entorhinal cortex (1 min): 1.92 Uptake Units | Radioactivity in Fat (1 min): 0.15 Uptake Units | Radioactivity in Heart (ventricle) (1 min): 10.4 Uptake Units | Radioactivity in Hippocampus (1 min): 1.61 Uptake Units | Radioactivity in Hypothalamus (1 min): 2.31 Uptake Units | Radioactivity in Inferior collicull (1 min): 3.42 Uptake Units | Radioactivity in Kidney (1 min): 12.5 Uptake Units | Radioactivity in Large intestine (1 min): 2.71 Uptake Units | Radioactivity in Lge. intestine content (1 min): 0.11 Uptake Units | Radioactivity in Liver (1 min): 2.48 Uptake Units | Radioactivity in Lung (1 min): 56.4 Uptake Units | Radioactivity in Medulla with Pons (1 min): 2.18 Uptake Units | Radioactivity in Olfactory bulbs (1 min): 2.34 Uptake Units | Radioactivity in Olfactory tubercles (1 min): 2.49 Uptake Units | Radioactivity in Prefrontal cortex (1 min): 2.52 Uptake Units | Radioactivity in Skeletal muscle (1 min): 1.07 Uptake Units | Radioactivity in Skin (1 min): 0.47 Uptake Units | Radioactivity in Sm. intestine content (1 min): 4.96 Uptake Units | Radioactivity in Small intestine (1 min): 3.38 Uptake Units | Radioactivity in Somatosensory cortex (1 min): 2.22 Uptake Units | Radioactivity in Spleen (1 min): 3.04 Uptake Units | Radioactivity in Stomach (1 min): 1.60 Uptake Units | Radioactivity in Striata (1 min): 2.13 Uptake Units | Radioactivity in Superior collicull (1 min): 2.42 Uptake Units | Radioactivity in Testis (1 min): 0.50 Uptake Units | Radioactivity in Thalamus (1 min): 2.59 Uptake Units | Radioactivity in Visual cortex (1 min): 2.46 Uptake Units | Radioactivity in Plasma (1 min): 0.51 Uptake Units | Radioactivity in Whole blood (1 min): 0.59 Uptake Units | Radioactivity in Cerebellum (2 min): 2.47 Uptake Units | Radioactivity in Entorhinal cortex (2 min): 2.13 Uptake Units | Radioactivity in Fat (2 min): 0.18 Uptake Units | Radioactivity in Heart (ventricle) (2 min): 8.20 Uptake Units | Radioactivity in Hippocampus (2 min): 1.73 Uptake Units | Radioactivity in Hypothalamus (2 min): 2.29 Uptake Units | Radioactivity in Inferior collicull (2 min): 3.65 Uptake Units | Radioactivity in Kidney (2 min): 10.8 Uptake Units | Radioactivity in Large intestine (2 min): 3.11 Uptake Units | Radioactivity in Lge. intestine content (2 min): 0.21 Uptake Units | Radioactivity in Liver (2 min): 1.65 Uptake Units | Radioactivity in Lung (2 min): 44.5 Uptake Units | Radioactivity in Medulla with Pons (2 min): 2.35 Uptake Units | Radioactivity in Olfactory bulbs (2 min): 2.50 Uptake Units | Radioactivity in Olfactory tubercles (2 min): 2.56 Uptake Units | Radioactivity in Prefrontal cortex (2 min): 2.73 Uptake Units | Radioactivity in Skeletal muscle (2 min): 1.14 Uptake Units | Radioactivity in Skin (2 min): 0.54 Uptake Units | Radioactivity in Sm. intestine content (2 min): 5.62 Uptake Units | Radioactivity in Small intestine (2 min): 3.87 Uptake Units | Radioactivity in Somatosensory cortex (2 min): 2.56 Uptake Units | Radioactivity in Spleen (2 min): 2.65 Uptake Units | Radioactivity in Stomach (2 min): 1.49 Uptake Units | Radioactivity in Striata (2 min): 2.33 Uptake Units | Radioactivity in Superior collicull (2 min): 2.64 Uptake Units | Radioactivity in Testis (2 min): 0.51 Uptake Units | Radioactivity in Thalamus (2 min): 2.41 Uptake Units | Radioactivity in Visual cortex (2 min): 2.71 Uptake Units | Radioactivity in Plasma (2 min): 0.37 Uptake Units | Radioactivity in Whole blood (2 min): 0.42 Uptake Units | Radioactivity in Cerebellum (5 min): 2.43 Uptake Units | Radioactivity in Entorhinal cortex (5 min): 2.16 Uptake Units | Radioactivity in Fat (5 min): 0.23 Uptake Units | Radioactivity in Heart (ventricle) (5 min): 4.27 Uptake Units | Radioactivity in Hippocampus (5 min): 2.00 Uptake Units | Radioactivity in Hypothalamus (5 min): 2.28 Uptake Units | Radioactivity in Inferior collicull (5 min): 3.23 Uptake Units | Radioactivity in Kidney (5 min): 8.70 Uptake Units | Radioactivity in Large intestine (5 min): 2.73 Uptake Units | Radioactivity in Lge. intestine content (5 min): 0.13 Uptake Units | Radioactivity in Liver (5 min): 2.95 Uptake Units | Radioactivity in Lung (5 min): 38.7 Uptake Units | Radioactivity in Medulla with Pons (5 min): 2.34 Uptake Units | Radioactivity in Olfactory bulbs (5 min): 2.18 Uptake Units | Radioactivity in Olfactory tubercles (5 min): 2.42 Uptake Units | Radioactivity in Prefrontal cortex (5 min): 2.67 Uptake Units | Radioactivity in Skeletal muscle (5 min): 1.32 Uptake Units | Radioactivity in Skin (5 min): 0.61 Uptake Units | Radioactivity in Sm. intestine content (5 min): 6.84 Uptake Units | Radioactivity in Small intestine (5 min): 3.17 Uptake Units | Radioactivity in Somatosensory cortex (5 min): 2.69 Uptake Units | Radioactivity in Spleen (5 min): 3.85 Uptake Units | Radioactivity in Stomach (5 min): 1.26 Uptake Units | Radioactivity in Striata (5 min): 2.35 Uptake Units | Radioactivity in Superior collicull (5 min): 2.59 Uptake Units | Radioactivity in Testis (5 min): 0.56 Uptake Units | Radioactivity in Thalamus (5 min): 2.59 Uptake Units | Radioactivity in Urine (5 min): 11.7 Uptake Units | Radioactivity in Visual cortex (5 min): 3.05 Uptake Units | Radioactivity in Plasma (5 min): 0.24 Uptake Units | Radioactivity in Whole blood (5 min): 0.26 Uptake Units | Radioactivity in Cerebellum (10 min): 2.08 Uptake Units | Radioactivity in Entorhinal cortex (10 min): 2.04 Uptake Units | Radioactivity in Fat (10 min): 0.50 Uptake Units | Radioactivity in Heart (ventricle) (10 min): 2.20 Uptake Units | Radioactivity in Hippocampus (10 min): 1.81 Uptake Units | Radioactivity in Hypothalamus (10 min): 2.13 Uptake Units | Radioactivity in Inferior collicull (10 min): 2.69 Uptake Units | Radioactivity in Kidney (10 min): 5.72 Uptake Units | Radioactivity in Large intestine (10 min): 1.92 Uptake Units | Radioactivity in Lge. intestine content (10 min): 0.17 Uptake Units | Radioactivity in Liver (10 min): 4.38 Uptake Units | Radioactivity in Lung (10 min): 35.3 Uptake Units | Radioactivity in Medulla with Pons (10 min): 2.26 Uptake Units | Radioactivity in Olfactory bulbs (10 min): 1.91 Uptake Units | Radioactivity in Olfactory tubercles (10 min): 2.14 Uptake Units | Radioactivity in Prefrontal cortex (10 min): 2.52 Uptake Units | Radioactivity in Skeletal muscle (10 min): 1.05 Uptake Units | Radioactivity in Skin (10 min): 0.70 Uptake Units | Radioactivity in Sm. intestine content (10 min): 5.31 Uptake Units | Radioactivity in Small intestine (10 min): 2.49 Uptake Units | Radioactivity in Somatosensory cortex (10 min): 2.49 Uptake Units | Radioactivity in Spleen (10 min): 4.31 Uptake Units | Radioactivity in Stomach (10 min): 0.82 Uptake Units | Radioactivity in Striata (10 min): 2.17 Uptake Units | Radioactivity in Superior collicull (10 min): 2.35 Uptake Units | Radioactivity in Testis (10 min): 0.66 Uptake Units | Radioactivity in Thalamus (10 min): 2.39 Uptake Units | Radioactivity in Urine (10 min): 10.9 Uptake Units | Radioactivity in Visual cortex (10 min): 2.80 Uptake Units | Radioactivity in Plasma (10 min): 0.19 Uptake Units | Radioactivity in Whole blood (10 min): 0.21 Uptake Units | Radioactivity in Cerebellum (15 min): 1.81 Uptake Units | Radioactivity in Entorhinal cortex (15 min): 1.93 Uptake Units | Radioactivity in Fat (15 min): 0.75 Uptake Units | Radioactivity in Heart (ventricle) (15 min): 1.63 Uptake Units | Radioactivity in Hippocampus (15 min): 1.74 Uptake Units | Radioactivity in Hypothalamus (15 min): 1.85 Uptake Units | Radioactivity in Inferior collicull (15 min): 2.22 Uptake Units | Radioactivity in Kidney (15 min): 4.78 Uptake Units | Radioactivity in Large intestine (15 min): 1.65 Uptake Units | Radioactivity in Lge. intestine content (15 min): 0.03 Uptake Units | Radioactivity in Liver (15 min): 6.87 Uptake Units | Radioactivity in Lung (15 min): 10.7 Uptake Units | Radioactivity in Medulla with Pons (15 min): 1.92 Uptake Units | Radioactivity in Olfactory bulbs (15 min): 1.72 Uptake Units | Radioactivity in Olfactory tubercles (15 min): 1.92 Uptake Units | Radioactivity in Prefrontal cortex (15 min): 2.32 Uptake Units | Radioactivity in Skeletal muscle (15 min): 1.07 Uptake Units | Radioactivity in Skin (15 min): 0.51 Uptake Units | Radioactivity in Sm. intestine content (15 min): 9.63 Uptake Units | Radioactivity in Small intestine (15 min): 2.79 Uptake Units | Radioactivity in Somatosensory cortex (15 min): 2.24 Uptake Units | Radioactivity in Spleen (15 min): 4.46 Uptake Units | Radioactivity in Stomach (15 min): 2.07 Uptake Units | Radioactivity in Striata (15 min): 1.92 Uptake Units | Radioactivity in Superior collicull (15 min): 2.01 Uptake Units | Radioactivity in Testis (15 min): 0.66 Uptake Units | Radioactivity in Thalamus (15 min): 2.21 Uptake Units | Radioactivity in Urine (15 min): 22.0 Uptake Units | Radioactivity in Visual cortex (15 min): 2.28 Uptake Units | Radioactivity in Plasma (15 min): 0.17 Uptake Units | Radioactivity in Whole blood (15 min): 0.19 Uptake Units | Radioactivity in Cerebellum (20 min): 1.45* Uptake Units | Radioactivity in Entorhinal cortex (20 min): 1.80 Uptake Units | Radioactivity in Fat (20 min): 0.40* Uptake Units | Radioactivity in Heart (ventricle) (20 min): 1.10* Uptake Units | Radioactivity in Hippocampus (20 min): 1.60 Uptake Units | Radioactivity in Hypothalamus (20 min): 1.67 Uptake Units | Radioactivity in Inferior collicull (20 min): 1.97 Uptake Units | Radioactivity in Kidney (20 min): 3.19* Uptake Units | Radioactivity in Large intestine (20 min): 1.27* Uptake Units | Radioactivity in Lge. intestine content (20 min): 0.28* Uptake Units | Radioactivity in Liver (20 min): 6.47* Uptake Units | Radioactivity in Lung (20 min): 14.0* Uptake Units | Radioactivity in Medulla with Pons (20 min): 1.68 Uptake Units | Radioactivity in Olfactory bulbs (20 min): 1.46 Uptake Units | Radioactivity in Olfactory tubercles (20 min): 1.73 Uptake Units | Radioactivity in Prefrontal cortex (20 min): 1.94* Uptake Units | Radioactivity in Skeletal muscle (20 min): 0.96* Uptake Units | Radioactivity in Skin (20 min): 0.68* Uptake Units | Radioactivity in Sm. intestine content (20 min): 6.08* Uptake Units | Radioactivity in Small intestine (20 min): 2.16* Uptake Units | Radioactivity in Somatosensory cortex (20 min): 2.03 Uptake Units | Radioactivity in Spleen (20 min): 3.26* Uptake Units | Radioactivity in Stomach (20 min): 0.67* Uptake Units | Radioactivity in Striata (20 min): 1.65* Uptake Units | Radioactivity in Superior collicull (20 min): 1.64 Uptake Units | Radioactivity in Testis (20 min): 0.73* Uptake Units | Radioactivity in Thalamus (20 min): 2.01 Uptake Units | Radioactivity in Urine (20 min): 10.7* Uptake Units | Radioactivity in Visual cortex (20 min): 2.07 Uptake Units | Radioactivity in Plasma (20 min): 0.17 Uptake Units | Radioactivity in Whole blood (20 min): 0.18 Uptake Units | Radioactivity in Cerebellum (30 min): 0.55 Uptake Units
